Data set [1] relates to Staphylococcus aureus strain MZ100. The data set can be described thus: Tibia pin assay: coated titanium pins with vancomycin, bacterial cfu count. The data set is classed as cell-based. Set-up: key: —: “−” means no cfus; “many” means too many cfus to count, as they converge into one spot. The settings on record: pin coated with test sample + vancomycin. An excerpt: In this assay, titanium pins were used as a model for tibia pins. Briefly, sterile pins were first coated with biofunctional composition (“SEQ ID NO:124-linker-SEQ ID NO:122”) comprising a substrate-binding peptide having binding specificity for vancomycin (“SEQ ID NO:124”) linked to a substrate-binding peptide having binding specificity for metal (“SEQ ID NO:122”), or a composition of the invention formed from compound comprising the biofunctional composition covalently coupled to fatty acid. The respective coatings also include vancomycin bound thereto. The coated pins were then placed in a silicone tube containing liquid bacterial growth medium and inoculated with bacteria. After incubation, the pins were removed, and then the liquid growth medium was serially diluted. The serial dilutions were inoculated onto bacterial culture plates, the plates were incubated, and counted on the plates were bacterial colonies.
In this assay, test samples (biofunctional composition (Table 6, “BC”) or compositions 133, 134, 135, 136 139) each were used to coat a pin by incubating the test sample (in a range of from about 0.8 mM to about 1 mM) with 2.5 μl of a 10 mM vancomycin solution and PBS to a final volume of 250 μl in a microtube (3 pins per tube) for 60 minutes at room temperature with occasional agitation. In a piece of silicone tubing (1.5 mm inner diameter, 50 mm long), added is tryptic soy broth+0.2% glucose, the coated pin, and 103 colony forming units (cfu) of Staphylococcus aureus strain MZ100 in either a 20 μl inoculum, 40 μl inoculum, or 60 μl inoculum. The tubing is clamped closed, and the tubing is incubated for 37° C. for 3 hours. After 3 hours, serial dilutions (1:10, 1:100, 1:1000) were made of the culture media from each tubing, and 10 μl of the undiluted culture medium and of each dilution were spotted onto the bacterial culture plate. The bacterial culture plate was incubated overnight at 37° C., and then the cfus were counted. The results, a composite of different assay runs, are shown in Table 6 (“−” means no cfus; “many” means too many cfus to count, as they converge into one spot; “NT” means not tested).

Data set [2] in a line: Critical micelle concentration (methyl orange assay). The data set is classed as physicochemical. As to conditions: pH 7 PBS, methyl orange 0.04 mM, A484. As to the method:
Formation of a composition of the invention, and evidence of macromolecular network formation, may be monitored or quantified by any means known in the art. In this example, macromolecular formation was detected using a standard assay for determining critical micelle concentration (“CMC”). In this assay, a solution containing the composition of the invention (in a range of concentrations in pH 7 phosphate buffered saline (“PBS”)) was mixed with a solution of methyl orange (0.04 mM in PBS), and the absorbance of the mixture was measured at 484 nm (A484). CMC is the concentration at which a sharp decrease in absorbance at A484 is observed, a change in the optical properties of methyl orange when trapped in a hydrophobic phase, such as caused by self-association as a macromolecular network (Table 7, “CMC”). Also included in this assay were an assay control peptide having an amino acid sequence of SEQ ID NO:122 (Table 7, “Control”), and compound 119 (a PEGylated peptide, the peptide having an amino acid sequence of SEQ ID NO:122, as described in more detail in Example 6 herein).

Data set [3] is described as follows: Retention of binding to metal bead after incubation in 10% BSA with 10 mM guanidinium chloride (mimics human plasma). As to conditions: 18 hour incubation in 10% BSA + 10 mM guanidinium chloride, 37° C.; comparator SEQ ID NO:122. The source says: In this example, illustrated are unexpected beneficial properties of the composition of the invention, including but not limited to, one or more improved biophysical properties. Such one or more unexpected beneficial properties of a composition of the invention may comprise an increase in stability. An increase in stability may comprise any one or more of resistance to chemical denaturation, resistance to proteolytic degradation, improved retention to a substrate (e.g., resistance to being competed off a substrate to which it is bound, such as by proteins or other biomolecules found in body tissues). Thus, to ascertain a beneficial property of a composition of the invention, it is compared to the properties of a component of the composition-namely, a substrate-binding peptide by itself (e.g., without fatty acid covalently coupled thereto). An assay was developed that, from our direct comparisons (see, e.g., discussion of FIG. 2 below, and Example 7 herein), mimicked the effect of incubation of substrate-binding peptide with human plasma on stability of binding of a substrate-binding peptide to its substrate. The assay utilized incubations in the presence of 10% bovine serum album (BSA) with 10 mM guanidinium chloride. The high BSA concentration mimics the elevated albumin content of human plasma, and the guanidinium chloride is used to compete with any charged interactions involved in binding of the substrate-binding peptide to its substrate.
In this assay, two immunoassay plates were prepared for a “side-by-side” comparison of binding of a test sample (substrate-binding peptide or composition of the invention) to its substrate with or without the presence of 10% BSA with 10 mM guanidinium chloride. The wells of each 96-well polypropylene plate were incubated with 350 μl BSA 1% in PBS for 30 minutes at 20° C. with 500 rpm shaking. To each well was added one acetone-cleaned 3/32″ 316LVM stainless steel bead, followed by addition of dilutions in PBS of the test sample in a range of concentrations starting from 10 μM. Final volume in each well was 200 μl. The plates were incubated for 1 hour at 20° C. with 500 rpm shaking to allow for the binding to occur. The beads were washed 3 times with 250 μl PBS using a plate washer. […]
In the immunoassay for detecting binding without the presence of 10% BSA with 10 mM guanidinium chloride, added to each well was 200 μl of streptavidin AP (AP is alkaline phosphatase) at 1/200 in TBS+1% BSA. […] When color has developed, each well was read at OD405 nm in endpoint mode using a plate reader. […] When color has developed, the wells were read at OD405 nm in endpoint mode using a plate reader. […]

Square brackets hold non-standard residues; d marks the D form. Ends that are not written are not given here. * marks the point of attachment. Myristoyl = CCCCCCCCCCCCCC(=O)*; Lauroyl = CCCCCCCCCCCC(=O)*; linker = not defined here; Aun = NCCCCCCCCCCC(=O)O

On to “SSSCLIDMYGVCHNFDGAYDSSRG [Compound 134, AUD-AUD-AUD-AUD-SEQ ID NO:124-linker-SEQ ID NO:122]”, for which, in data set [1] (20 μl inoculum), the “cfu 1:10” value was “—”, the “cfu 1:100” value is recorded as “—” and the “cfu 1:1000” value is “—”. Further, the cfu undiluted entry in data set [1] (20 μl inoculum, 103 colony forming units, 3 hours 37° C.) was “—”. For the same substance, in data set [1] (40 μl inoculum), the “cfu 1:10” value was determined as 6 cfu, the “cfu 1:100” value was 1 cfu, the “cfu 1:1000” value is “—” and the cfu undiluted entry was “many”. Besides, in data set [1] (60 μl inoculum), the “cfu 1:10” value is listed as 17 cfu, the “cfu 1:100” value was determined as 5 cfu, the “cfu 1:1000” value is listed as “—” and the cfu undiluted entry is recorded as “many”.

“AUD-AUD-K-AUD-AUD-AUD-AUD-SEQ ID NO:122 ([Aun][Aun]K[Aun][Aun][Aun][Aun]SSHRTNHKKNNPKKKNKTRGSSGK) [Compound 123]” showed a CMC in data set [2] of 0.04 µM. In addition, the “retention of binding of substrate-binding peptide component to its substrate, compared to substrate-binding peptide alone (FIG. 1)” value in data set [3] is “significantly improved retention of binding”. In turn, “LAU-SEQ ID NO:122 (Lauroyl-SSHRTNHKKNNPKKKNKTRGSSGK) [Compound 126]” returned a CMC in data set [2] of 0.37 µM. Same read-out and setting: with “SSHRTNHKKNNPKKKNKTRGSSGK [Compound 130, AUD-AUD-AUD-AUD-AUD-AUD-SEQ ID NO:122]” the figure was 0.041 µM. On to “AUD-AUD-AUD-AUD-SEQ ID NO:122 ([Aun][Aun][Aun][Aun]SSHRTNHKKNNPKKKNKTRGSSGK) [Compound 122]”, for which the “retention of binding of substrate-binding peptide component to its substrate, compared to substrate-binding peptide alone (FIG. 1)” value in data set [3] is listed as “significantly improved retention of binding”. For the substance “SSHRTNHKKNNPKKKNKTRGSSGK [SEQ ID NO:122]”, in data set [2] (listed as Control), the CMC is >>10 μM. “SSHRTNHKKNNPKKKNKTRGSSGK [Compound 131, AUD-AUD-AUD-AUD-AUD-AUD-AUD-AUD-SEQ ID NO:122]”: in data set [2], the CMC turned out to be 0.37 µM. Substance “[MYR]2-K-linker-SEQ ID NO:122 (SSHRTNHKKNNPKKKNKTRGSSGK; also: lysine bearing two myristoyl groups plus linker, attachment not placed) [Compound 128]” came in with a CMC in data set [2] of 0.123 µM. On the same count and under the same terms, with “PALM-PALM-PALM-linker-SEQ ID NO:122 (SSHRTNHKKNNPKKKNKTRGSSGK; also: three palmitoyl groups and linker, attachment not placed) [Compound 129]” the figure was 0.123 µM; with “MYR-linker-SEQ ID NO:122 ({Myristoyl-linker}-SSHRTNHKKNNPKKKNKTRGSSGK; reading uncertain) [Compound 127]”, 0.123 µM; with “MYR-SEQ ID NO:122 (Myristoyl-SSHRTNHKKNNPKKKNKTRGSSGK) [Compound 125]”, 0.123 µM. For the substance “119: Fmoc-NH-(PEG)27-CO2H covalently coupled to a peptide having the amino acid sequence of SEQ ID NO:122 (PEGylated peptide) (SSHRTNHKKNNPKKKNKTRGSSGK; also: Fmoc-NH-(PEG)27-CO2H coupled, site not given here) [Compound 119, reference compound]”, the CMC in data set [2] is listed as >>10 μM. Moreover, the “retention of binding of substrate-binding peptide component to its substrate, compared to substrate-binding peptide alone (FIG. 1)” value in data set [3] is “failed to promote retention of binding”. On to “120: amino acid sequence YWAWAYAW (SEQ ID NO:129) covalently coupled to a peptide having the amino acid sequence of SEQ ID NO:122 (YWAWAYAWSSHRTNHKKNNPKKKNKTRGSSGK) [Compound 120, reference compound]”, for which, in data set [3], the “retention of binding of substrate-binding peptide component to its substrate, compared to substrate-binding peptide alone (FIG. 1)” value is “failed to promote retention of binding”. Take “Ac-Y-AUD-AUD-AUD-AUD-AUD-AUD-SEQ ID NO:122 (Ac-Y[Aun][Aun][Aun][Aun][Aun][Aun]SSHRTNHKKNNPKKKNKTRGSSGK) [Compound 132]”: the CMC in data set [2] was 0.123 µM.

The record behind these values is patent US20090246249A1, “COATING COMPOSITIONS HAVING IMPROVED PERFORMANCE” (priority 2008, published 2009).
